{"source": "patent US9295253B2", "about": "“Use of abscisic acid on ornamental plants” (Valent BioSciences Corporation, priority 2007, dated 2016)", "key": {"potted Poinsettia plants": {"system": "potted Poinsettia plants", "conditions": "foliar application; cited from earlier work"}, "Coleus": {"system": "Coleus", "test": "Drought tolerance and side effects after ABA drench, irrigation withheld", "format": "in vivo", "conditions": "drenched with 250 ppm ABA, greenhouse, no irrigation", "text": "(§1) Many different commercial ornamental crops were obtained from local retailers, or from wholesale nurseries, and transported to a greenhouse for testing. Plants were watered to saturation and allowed to stand and drain for about one hour. Plants were selected for uniformity based on leaf area and arranged in a randomized complete block design, or a completely randomized design, on the greenhouse bench. The plants were sprayed or drenched with water or treatment solution equaling about 5-10% of the pot volume. The plants were held without irrigation until all the plants wilted to a point when they were determined to be unmarketable. The plants were rated daily for the extent of wilting on a scale from 1 for no wilting to 4 for complete wilting. A rating of 2.5 was the point at which a plant was determined to be unmarketable and the previous day was recorded as the marketable life of that plant in days. The plants were rated for the extent of lower leaf yellowing or leaf or flower abscission on a scale from 1 for no yellowing or abscission to 4 for complete yellowing or abscission. A rating of 2.5 was the point at which a plant was determined to be unmarketable.\n(§2) Plants were individually rated on a daily basis for degree of wilting and other undesirable characteristics like leaf yellowing."}, "Agapanthus": {"system": "Agapanthus", "test": "Drought tolerance and side effects after ABA drench, irrigation withheld", "format": "in vivo", "conditions": "drenched with 250 ppm ABA, greenhouse, no irrigation", "text": "as §1, §2"}, "Cosmos": {"system": "Cosmos", "test": "Drought tolerance and side effects after ABA drench, irrigation withheld", "format": "in vivo", "conditions": "drenched with 250 ppm ABA, greenhouse, no irrigation", "text": "as §1, §2"}, "Lobelia": {"system": "Lobelia", "test": "Drought tolerance and side effects after ABA drench, irrigation withheld", "format": "in vivo", "conditions": "drenched with 250 ppm ABA, greenhouse, no irrigation", "text": "as §1, §2"}, "Lantana": {"system": "Lantana", "test": "Drought tolerance and side effects after ABA drench, irrigation withheld", "format": "in vivo", "conditions": "drenched with 250 ppm ABA, greenhouse, no irrigation", "text": "as §1, §2"}, "Salvia": {"system": "Salvia", "test": "Drought tolerance and side effects after ABA drench, irrigation withheld", "format": "in vivo", "conditions": "drenched with 250 ppm ABA, greenhouse, no irrigation", "text": "as §1, §2"}, "Poinsettia": {"system": "Poinsettia", "test": "Drought tolerance and side effects after ABA drench, irrigation withheld", "format": "in vivo", "conditions": "drenched with 250 ppm ABA, greenhouse, no irrigation", "text": "as §1, §2"}, "Alyssum": {"system": "Alyssum", "test": "Drought tolerance and side effects after ABA drench, irrigation withheld", "format": "in vivo", "conditions": "drenched with 250 ppm ABA, greenhouse, no irrigation", "text": "as §1, §2"}, "Pentas": {"system": "Pentas", "test": "Drought tolerance and side effects after ABA drench, irrigation withheld", "format": "in vivo", "conditions": "drenched with 250 ppm ABA, greenhouse, no irrigation", "text": "as §1, §2"}, "Calibrachoa": {"system": "Calibrachoa", "test": "Drought tolerance and side effects after ABA drench, irrigation withheld", "format": "in vivo", "conditions": "drenched with 250 ppm ABA, greenhouse, no irrigation", "text": "as §1, §2"}, "Chrysanthemum": {"system": "Chrysanthemum", "test": "Drought tolerance and side effects after ABA drench, irrigation withheld", "format": "in vivo", "conditions": "drenched with 250 ppm ABA, greenhouse, no irrigation", "text": "as §1, §2"}, "Marigold": {"system": "Marigold", "test": "Drought tolerance and side effects after ABA drench, irrigation withheld", "format": "in vivo", "conditions": "drenched with 250 ppm ABA, greenhouse, no irrigation", "text": "as §1, §2"}, "Snapdragon": {"system": "Snapdragon", "test": "Drought tolerance and side effects after ABA drench, irrigation withheld", "format": "in vivo", "conditions": "drenched with 250 ppm ABA, greenhouse, no irrigation", "text": "as §1, §2"}, "Rose": {"system": "Rose", "test": "Drought tolerance and side effects after ABA drench, irrigation withheld", "format": "in vivo", "conditions": "drenched with 250 ppm ABA, greenhouse, no irrigation", "text": "as §1, §2"}, "Pansy": {"system": "Pansy", "test": "Drought tolerance and side effects after ABA drench, irrigation withheld", "format": "in vivo", "text": "as §1, §2"}, "Hydrangea": {"system": "Hydrangea", "test": "Drought tolerance and side effects after ABA drench, irrigation withheld", "format": "in vivo", "conditions": "drenched with 250 ppm ABA, greenhouse, no irrigation", "text": "as §1, §2"}, "Cuphea": {"system": "Cuphea", "test": "Drought tolerance and side effects after ABA drench, irrigation withheld", "format": "in vivo", "conditions": "drenched with 250 ppm ABA, greenhouse, no irrigation", "text": "as §1, §2"}, "Impatiens": {"system": "Impatiens", "test": "Drought tolerance and side effects after ABA drench, irrigation withheld", "format": "in vivo", "conditions": "drenched with 250 ppm ABA, greenhouse, no irrigation", "text": "as §1, §2"}, "New Guinea Impatiens": {"system": "New Guinea Impatiens", "test": "Drought tolerance and side effects after ABA drench, irrigation withheld", "format": "in vivo", "text": "as §1, §2"}, "Celosia": {"system": "Celosia", "test": "Drought tolerance and side effects after ABA drench, irrigation withheld", "format": "in vivo", "conditions": "drenched with 250 ppm ABA, greenhouse, no irrigation", "text": "as §1, §2"}, "Gazania": {"system": "Gazania", "test": "Drought tolerance and side effects after ABA drench, irrigation withheld", "format": "in vivo", "conditions": "drenched with 250 ppm ABA, greenhouse, no irrigation", "text": "as §1, §2"}, "Euryops": {"system": "Euryops", "test": "Drought tolerance and side effects after ABA drench, irrigation withheld", "format": "in vivo", "conditions": "drenched with 250 ppm ABA, greenhouse, no irrigation", "text": "as §1, §2"}, "Vinca": {"system": "Vinca", "test": "Drought tolerance and side effects after ABA drench, irrigation withheld", "format": "in vivo", "text": "as §1, §2"}, "Petunia": {"system": "Petunia", "test": "Drought tolerance and side effects after ABA drench, irrigation withheld", "format": "in vivo", "conditions": "drenched with 250 ppm ABA, greenhouse, no irrigation", "text": "as §1, §2"}, "Dianthus": {"system": "Dianthus", "test": "Drought tolerance and side effects after ABA drench, irrigation withheld", "format": "in vivo", "conditions": "drenched with 250 ppm ABA, greenhouse, no irrigation", "text": "as §1, §2"}, "excised Coleus leaves": {"system": "excised Coleus leaves", "conditions": "applied through the petiole of excised Coleus leaves, compared to excised leaves standing in water; cited from earlier work"}, "[1]": {"conditions": "drenched with 250 ppm ABA, greenhouse, no irrigation"}}, "data": [{"substance": "(S)-5-(1-hydroxy-2,6,6,-trimethyl-4-oxo-2-cyclohexen-1-yl)-3-methyl-(2Z,4E)-pentadienoic acid [ABA]", "values": [{"measurement": "Transpiration", "setting": "potted Poinsettia plants", "value": "reduced the transpiration"}, {"measurement": "Market life extension (days of additional market life compared to control plants due to delayed wilting)", "setting": "Coleus", "value": 2.3, "unit": "days"}, {"measurement": "Market life extension (days of additional market life compared to control plants due to delayed wilting)", "setting": "Agapanthus", "value": 0, "unit": "days"}, {"measurement": "Market life extension (days of additional market life compared to control plants due to delayed wilting)", "setting": "Cosmos", "value": 1.4, "unit": "days"}, {"measurement": "Market life extension (days of additional market life compared to control plants due to delayed wilting)", "setting": "Lobelia", "value": 2.5, "unit": "days"}, {"measurement": "Market life extension (days of additional market life compared to control plants due to delayed wilting)", "setting": "Lantana", "value": 2.4, "unit": "days"}, {"measurement": "Market life extension (days of additional market life compared to control plants due to delayed wilting)", "setting": "Salvia", "value": 1.9, "unit": "days"}, {"measurement": "Market life extension (days of additional market life compared to control plants due to delayed wilting)", "setting": "Poinsettia", "value": 2.0, "unit": "days"}, {"measurement": "Market life extension (days of additional market life compared to control plants due to delayed wilting)", "setting": "Alyssum", "value": 0, "unit": "days"}, {"measurement": "Market life extension (days of additional market life compared to control plants due to delayed wilting)", "setting": "Pentas", "value": 2.8, "unit": "days"}, {"measurement": "Market life extension (days of additional market life compared to control plants due to delayed wilting)", "setting": "Calibrachoa", "value": 0, "unit": "days"}, {"measurement": "Market life extension (days of additional market life compared to control plants due to delayed wilting)", "setting": "Chrysanthemum", "value": 2.0, "unit": "days"}, {"measurement": "Market life extension (days of additional market life compared to control plants due to delayed wilting)", "setting": "Marigold", "value": 1.9, "unit": "days"}, {"measurement": "Market life extension (days of additional market life compared to control plants due to delayed wilting)", "setting": "Snapdragon", "value": 1.5, "unit": "days"}, {"measurement": "Market life extension (days of additional market life compared to control plants due to delayed wilting)", "setting": "Rose", "value": 0, "unit": "days"}, {"measurement": "Drought tolerance of treated plants (in words)", "setting": "Pansy; ABA application", "value": "more drought tolerant"}, {"measurement": "Market life extension (days of additional market life compared to control plants due to delayed wilting)", "setting": "Pansy; [1]", "value": 1.6, "unit": "days"}, {"measurement": "Market life extension (days of additional market life compared to control plants due to delayed wilting)", "setting": "Hydrangea", "value": 3.4, "unit": "days"}, {"measurement": "Market life extension (days of additional market life compared to control plants due to delayed wilting)", "setting": "Cuphea", "value": 2.3, "unit": "days"}, {"measurement": "Market life extension (days of additional market life compared to control plants due to delayed wilting)", "setting": "Impatiens", "value": 2.0, "unit": "days"}, {"measurement": "Drought tolerance of treated plants (in words)", "setting": "New Guinea Impatiens; ABA application", "value": "much greater drought tolerance"}, {"measurement": "Market life extension (days of additional market life compared to control plants due to delayed wilting)", "setting": "New Guinea Impatiens; [1]", "value": 3.3, "unit": "days"}, {"measurement": "Market life extension (days of additional market life compared to control plants due to delayed wilting)", "setting": "Celosia", "value": 2.3, "unit": "days"}, {"measurement": "Market life extension (days of additional market life compared to control plants due to delayed wilting)", "setting": "Gazania", "value": 0, "unit": "days"}, {"measurement": "Market life extension (days of additional market life compared to control plants due to delayed wilting)", "setting": "Euryops", "value": 3.3, "unit": "days"}, {"measurement": "Drought tolerance of treated plants (in words)", "setting": "Vinca; ABA application", "value": "more drought tolerant"}, {"measurement": "Market life extension (days of additional market life compared to control plants due to delayed wilting)", "setting": "Vinca; [1]", "value": 2.5, "unit": "days"}, {"measurement": "Market life extension (days of additional market life compared to control plants due to delayed wilting)", "setting": "Petunia", "value": 3.5, "unit": "days"}, {"measurement": "Market life extension (days of additional market life compared to control plants due to delayed wilting)", "setting": "Dianthus", "value": 1.6, "unit": "days"}, {"measurement": "Transpiration rate", "setting": "excised Coleus leaves", "value": "reduces their transpiration rate"}]}]}
